# Values quoted from earlier work, collected in patent US8691277B2, “Long acting sustained-release formulation containing dopamine receptor agonist and the preparation method thereof” (Shandong Luye Pharmaceutical Co., Ltd., priority 2004, dated 2014).
# Legend:
# [1] = in vivo
# [2] = in vivo, po
half-life [1],bioavailability [2],Compound
only a couple of hours,,CCCN[C@H]1CCc2nc(N)sc2C1 [pramipexole]
only a couple of hours,1-5%,CCCN(CCc1cccs1)[C@H]1CCc2c(O)cccc2C1 [rotigotine]
